From publication PMC12040169 (PLOS Biology, 2025) come the findings set out here.

A short description of one series: in vitro. Conditions: human, hela cells, % viability.
Broadly, the viability is a read-out of living cells in per cent, often relative to untreated cells. Consider `COc1cccc2cc(C(=O)C3=C(O)C(=O)N(CCN4CCOCC4)C3c3cccs3)oc12` (centres unmarked) [CBK269433], for which the viability at 28.5 h, 10 µM amounted to 101%.

`O=C(NCCCn1ccnc1)C1CCN(C(=O)c2cccc(Cl)c2)CC1` [CBK307596]: the viability at 28.5 h, 10 µM amounted to 116%.

Take `CCN1CCN(C(=O)CN(Cc2ccc(F)cc2)S(=O)(=O)c2ccccc2)CC1` [CBK266612]: the viability at 28.5 h, 10 µM worked out at 96.8%.

`Cn1ncc2c1CCCN(C(=O)CCc1ccccc1F)C2` [CBK285255]: the viability at 28.5 h, 10 µM turned out to be 96.8%.

`Cc1ccc(C2(CN3CCN(CC4CCOC4)CC3)CC2)cc1` (centres unmarked) [CBK282479]: the viability at 28.5 h, 10 µM was 86.1%.

Take `COc1cc(NC(=O)CC2SC(NC3CCCCC3)=NC2=O)c(OC)cc1Cl` (centres unmarked) [CBK059497]: the viability at 28.5 h, 10 µM was found to be 96.2%.

Regarding `COc1ccc(-n2c3c(cc(C(=O)Nc4ccccc4Br)c2=O)C(=O)CCC3)cc1` [CBK293945], the viability at 28.5 h, 10 µM was 95.7%.

Take `O=C(Cn1c(-c2cccs2)cc2cccnc21)N1CCOCC1` [CBK282452]: the viability at 28.5 h, 10 µM was found to be 101%.

In the case of `O=C(C1=C(O)C(=O)N(CCN2CCOCC2)C1c1ccccn1)c1cccs1` (centres unmarked) [CBK266508], the viability at 28.5 h, 10 µM amounted to 99.3%.

Take `CN(C)Cc1cc(C[C@@H]2C[C@H](NCc3ccccn3)C2(C)C)no1` [CBK289313]: the viability at 28.5 h, 10 µM is 92.3%.

On to `CC1(c2cc(F)ccc2F)NC(=O)N(c2ccncc2)C1=O` (centres unmarked) [CBK291253], for which the viability at 28.5 h, 10 µM stood at 92.9%.

On to `O=C(NCCN1CCc2ccccc2C1)C1CCCCC1` [CBK305049], for which the viability at 28.5 h, 10 µM was found to be 115%.

With `CC(=O)c1sc(NC(=O)c2ccc(N3C(=O)CCC3=O)cc2)nc1C` [CBK287334], the viability at 28.5 h, 10 µM turned out to be 86.5%.

Turning to `C[C@@H](NC(=O)N(Cc1ccc([N+](=O)[O-])cc1)CC(C)(C)N)c1cccc2ccccc12` [CBK004921], the viability at 28.5 h, 10 µM amounted to 102%.

For the compound `O=C(c1n[nH]c2ccccc12)N1CCc2ccccc2C1` [CBK200330], the viability at 28.5 h, 10 µM turned out to be 94.4%.

With `Cn1ccnc1C(NC(=O)[C@@H]1C[C@@H]2C=C[C@H]1C2)c1ccc(F)cc1` (some centres unmarked) [CBK281483], the viability at 28.5 h, 10 µM turned out to be 95.5%.

On to `COC(=O)c1ccc(N2CCOCC2)c(NC(=O)COc2ccccc2)c1` [CBK270222], for which the viability at 28.5 h, 10 µM was found to be 84.6%.

Turning to `c1ccc(CNc2nnc(-c3ccccc3)s2)cc1` [CBK074928], the viability at 28.5 h, 10 µM is 87.7%.

For `COc1cc2nc3c4ccccc4n(CC(=O)O)c3nc2cc1OC` [CBK263626], the viability at 28.5 h, 10 µM worked out at 86.8%.

Regarding `O=C1NCC(c2ccccc2)C1C(=O)N/N=C\c1cc(O)ccc1[N+](=O)[O-]` (centres unmarked) [CBK262772], the viability at 28.5 h, 10 µM is 91.8%.

For the compound `COCCC(=O)N1CCC(F)CC1` [CBK200399], the viability at 28.5 h, 10 µM was determined as 99.1%.

With `Cc1cc(Cn2nnnc2-c2ccncc2)cc(C)c1O` [CBK291103], the viability at 28.5 h, 10 µM was 104%.

As for `Clc1ccc(COc2ccnc(N3CCCNCC3)n2)cc1Cl` [CBK091550], the viability at 28.5 h, 10 µM came to 90%.

`Cn1c(=O)c2c(nc(SCC(=O)CSc3nc4c(c(=O)n(C)c(=O)n4C)n3C)n2C)n(C)c1=O` [CBK267692]: the viability at 28.5 h, 10 µM was found to be 86.9%.

With `CCC(=O)NC(c1ccc(OC)c(OC)c1)c1ccc2cccnc2c1O` (centres unmarked) [CBK293926], the viability at 28.5 h, 10 µM is 78%.

Take `OCCN1CCN(c2cc(N3CCN(c4ccccn4)CC3)n3nccc3n2)CC1` [CBK037129]: the viability at 28.5 h, 10 µM is 100%.

On to `COc1ccccc1NC(=S)NCCc1ccccn1` [CBK265358], for which the viability at 28.5 h, 10 µM was 91.2%.

Consider `O=C(Cn1cnnn1)NCc1cccnc1OCC(F)(F)F` [CBK306467], for which the viability at 28.5 h, 10 µM turned out to be 96.1%.

On to `Cc1cc2nc(-c3cc(NC(=O)c4ccc(C)c([N+](=O)[O-])c4)ccc3O)oc2cc1C` [CBK262779], for which the viability at 28.5 h, 10 µM came to 89.1%.

Turning to `COc1cc(C(O)CNC(=O)c2cnc(-c3ccc(F)cc3)c(-c3cccc(N)c3)c2)ccc1O` (centres unmarked) [CBK038032], the viability at 28.5 h, 10 µM was 98.8%.

For `Cc1nn(CC(=O)NC2CC2)c(=O)c2cc3ccsc3n12` [CBK284026], the viability at 28.5 h, 10 µM stood at 92.3%.

Consider `O=c1[nH]cnc2c1ncn2[C@@H]1O[C@H](CO)[C@H](O)C1O` (some centres unmarked) [CBK201186], for which the viability at 28.5 h, 10 µM stood at 98.3%.

Regarding `COc1cccc(-c2nc(C3CCN(CCc4ccc(F)cc4)CC3)n3ccccc23)c1` [CBK035373], the viability at 28.5 h, 10 µM is 94.7%.

In the case of `COC(=O)c1cnc(Sc2ccc(Cl)cc2)nc1C(F)(F)F` [CBK009299], the viability at 28.5 h, 10 µM worked out at 95.9%.

In the case of `CCC(CC)C(=O)N(C)c1c(C)nc2ccc(C(=O)Nc3cccc(NS(C)(=O)=O)c3)cn12` [CBK146526], the viability at 28.5 h, 10 µM worked out at 105%.

`Nc1ncn([C@H]2C[C@@H](O)[C@@H](CO)O2)c(=O)n1` [CBK201329]: the viability at 28.5 h, 10 µM is 92.8%.

As for `CCCn1c(=O)c(C(=O)NCCN(CC)CC)c(O)c2cc(Br)ccc21` [CBK291118], the viability at 28.5 h, 10 µM is 85.7%.

On to `O=C(Nc1ccc(NC(=O)c2ccccc2O)cc1)c1cnc(-c2ccccc2)c(-c2ccncc2)c1` [CBK037490], for which the viability at 28.5 h, 10 µM turned out to be 80.5%.

As for `O=C(O)c1ccc(NC(=O)c2ncn(-c3ccccc3)n2)cc1` [CBK269445], the viability at 28.5 h, 10 µM amounted to 97.7%.

For `CCOC(=O)c1cc(C)sc1NC(=O)CCC(=O)O` [CBK265412], the viability at 28.5 h, 10 µM was found to be 108%.

As for `COCCNc1nc(-c2ccccc2CO)cnc1N` [CBK063575], the viability at 28.5 h, 10 µM turned out to be 108%.

In the case of `CCN1CCN(C(=O)CCn2c(C(F)F)cc3cccnc32)CC1` [CBK285026], the viability at 28.5 h, 10 µM was found to be 112%.

As to `COc1cc(NC(=O)Cn2nc([N+](=O)[O-])c(Cl)c2C)c(OC)cc1Cl` [CBK033535], the viability at 28.5 h, 10 µM is 97.9%.

`CN1CCN(c2cnn(CCCOc3ccccc3)c(=O)c2)CC1` [CBK307203]: the viability at 28.5 h, 10 µM was 100%.

`COc1ccc2c(c1)C1(CC(=O)N(CC3CCCCC3)C1=O)C(=O)N2C` (centres unmarked) [CBK075201]: the viability at 28.5 h, 10 µM came out at 100%.

On to `c1ccc(C(NCc2cncs2)C2CCCC2)cc1` (centres unmarked) [CBK304812], for which the viability at 28.5 h, 10 µM was 82.6%.

For `Cc1ccc(C2(O)CCN(CCNC(=O)C3CC3C)CC2)cc1` (centres unmarked) [CBK282607], the viability at 28.5 h, 10 µM turned out to be 83.9%.

In the case of `CC1(C)N=C(c2ccc(Cl)cc2Cl)C(=S)N1` [CBK288449], the viability at 28.5 h, 10 µM worked out at 88.3%.

As for `COc1cc(C)c(Nc2cc(-c3ccc(C(N)=O)cc3)ncn2)cc1OC` [CBK090784], the viability at 28.5 h, 10 µM worked out at 98.9%.

As to `COC(=O)[C@H]1CN(C(=O)c2cscn2)C[C@@H]1c1ccc(F)cc1` [CBK283785], the viability at 28.5 h, 10 µM worked out at 92.3%.

As to `C[C@]12CN(Cc3ccccc3)C[C@H]1NC(=O)c1ccccc1C2=O` [CBK284703], the viability at 28.5 h, 10 µM worked out at 96.5%.

Consider `COC(=O)[C@@H](C)NC(=O)[C@H]1CN(C(=O)c2cccnc2)CCN1C(=O)c1cccs1` [CBK289628], for which the viability at 28.5 h, 10 µM was 82.4%.

With `O=C(O)c1ccc(CSc2nnnn2-c2ccccc2)cc1` [CBK286726], the viability at 28.5 h, 10 µM stood at 85.1%.

On to `CC(C)(C)OC(=O)N1CCc2[nH]nc(Nc3ccccc3)c2C1` [CBK281541], for which the viability at 28.5 h, 10 µM turned out to be 80%.

With `CC(C)(C)c1cc(CN(Cc2cc(C(C)(C)C)c(O)c(C(C)(C)C)c2)C2CCCCC2)cc(C(C)(C)C)c1O` [CBK261996], the viability at 28.5 h, 10 µM was determined as 106%.

Still in this series, the particulars now being: human, hela cells, % viability, bulk resorufin, single well.
As to `Cc1ccccc1N1C(=O)NC(=O)C(CCc2ccncc2)(Cc2ccc3c(c2)OCO3)C1=O` (centres unmarked) [CBK266289], the viability at 28.5 h, 10 µM was 92%.
